Results: US11447465B2, “Pharmaceutical compounds for treatment of medical disorders” (Achillion Pharmaceuticals, Inc., priority 2017, dated 2022)

Biological target: Human Factor D (Homo sapiens (Human), UniProt P00746)
Assay: Human Factor D Assay
Format: biochemical
Conditions: Table 7; read-out: IC5 (Stars)
In short: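 Serum-purified human factor D (80 nM final) preincubated with compound 5 min at room temperature in 50 mM Tris, 1 M NaCl, pH 7.5. Z-L-Lys-SBzl and DTNB added at 100 μM each; A405 followed every 30 s for 30 min. IC50 by nonlinear regression of rates.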

Chain of Human Factor D (P00746 26-253): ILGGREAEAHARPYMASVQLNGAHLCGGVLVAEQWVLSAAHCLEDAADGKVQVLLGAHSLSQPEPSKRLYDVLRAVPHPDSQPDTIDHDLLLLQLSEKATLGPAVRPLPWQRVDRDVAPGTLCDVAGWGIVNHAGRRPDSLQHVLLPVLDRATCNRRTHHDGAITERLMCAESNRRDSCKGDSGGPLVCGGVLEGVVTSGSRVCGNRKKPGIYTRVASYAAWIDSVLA

SMILES	IC50 [nM]
Cc1ncc(-c2cc(CC(=O)N3[C@H](C(=O)Nc4nc(Br)ccc4C)C[C@@]4(C)C[C@@H]34)cc(C(N)=O)c2)cn1 [Compound T-169, (1R,3S,5R)-N-(6-bromo-3-methylpyridin-2-yl)-2-(2-(3-carbamoyl-5-(2-methylpyrimidin-5-yl)phenyl)acetyl)-5-methyl-2-azabicyclo[3.1.0]hexane-3-carboxamide]	1000 to 10000
Cc1ncc(-c2cc(C#N)cc(CC(=O)N3C[C@H](F)C[C@H]3C(=O)Nc3cccc(Br)n3)c2)cn1 [Compound T-170, (2S,4R)-N-(6-bromopyridin-2-yl)-1-(2-(3-cyano-5-(2-methylpyrimidin-5-yl)phenyl)acetyl)-4-fluoropyrrolidine-2-carboxamide]	1000 to 10000
Cc1ncc(-c2cc(C#N)cc(CC(=O)N3[C@H](C(=O)Nc4nc(Br)ccc4C)C[C@@]4(C)C[C@@H]34)c2)cn1 [Compound T-171, (1R,3S,5R)-N-(6-bromo-3-methylpyridin-2-yl)-2-(2-(3-cyano-5-(2-methylpyrimidin-5-yl)phenyl)acetyl)-5-methyl-2-azabicyclo[3.1.0]hexane-3-carboxamide]	1000 to 10000
Cc1ncc(-c2cc(CC(=O)N3C[C@H](F)C[C@H]3C(=O)Nc3cccc(-c4ccccc4Cl)c3F)cc(OCC(=O)O)c2)cn1 [Compound T-176, 2-(3-(2-((2S,4R)-2-((2′-chloro-2-fluoro-[1,1′-biphenyl]-3-yl)carbamoyl)-4-fluoropyrrolidin-1-yl)-2-oxoethyl)-5-(2-methylpyrimidin-5-yl)phenoxy)acetic acid]	1000 to 10000
Cc1ccc(Br)nc1NC(=O)[C@@H]1C[C@@]2(CNC(=O)COCCOCCNC(=O)COCCOCCNC(=O)CC[C@H](NC(=O)CCCCCCCCCCCCCCCCC(=O)O)C(=O)O)C[C@H]2N1C(=O)Cn1nc(C(N)=O)c2cc(C#Cc3ncc(F)cn3)ccc21 [Compound T-177, (S)-1-((1R,3S,5R)-3-((6-bromo-3-methylpyridin-2-yl)carbamoyl)-2-(2-(3-carbamoyl-5-((5-fluoropyrimidin-2-yl)ethynyl)-1H-indazol-1-yl)acetyl)-2-azabicyclo[3.1.0]hexan-5-yl)-24-carboxy-3,12,21,26-tetraoxo-5,8,14,17-tetraoxa-2,11,20,25-tetraazatritetracontan-43-oic acid]	< 1000
